Values of other authors in patent US12433860B2, “Treatment of multiple sclerosis comprising DHODH inhibitors” (Immunic AG, priority 2021, dated 2025).

System: patients with active rheumatoid arthritis
Conditions: 35 mg once-daily for 13 weeks; cited from earlier work

COc1cccc(-c2ccc(NC(=O)C3=C(C(=O)O)CCC3)c(F)c2)c1 [vidofludimus, 2-((3-fluoro-3′-methoxy-[1,1′-biphenyl]-4-yl)carbamoyl)cyclopent-1-enecarboxylic acid]
diarrhoea, alopecia, neutropenia or liver enzyme elevations: no notable increases
safety profile as compared to placebo: overall similar safety profile as compared to placebo
